According to patent US20210032139A1, “REGULATING A MICROENVIRONMENT OF ANAEROBIC GRANULAR SLUDGE TO PROMOTE ANAEROBIC DIGESTION AND DELAY CALCIFICATION” (GuangXi University, priority 2019, published 2021):

Tests used:
[1] = system: anaerobic granular sludge; experiment: Laboratory anaerobic serum bottle reactor treating papermaking wastewater with daily C8-HSL addition; settings: after three months; for Methanobactium, Methanosaeta and Methanosarcina in the microbial community: sequencing analysis
Description: First, 50 mL of anaerobic granular sludge and 200 mL of papermaking wastewater collected from a paper mill were placed in a 250 mL anaerobic serum bottle. The bioreactor used in this example involves a 24-hour operation cycle, which has a reaction stage (23.5 h) and a sludge settling stage (0.5 h).
Next, 50 mL of supernatant is removed from the top of the anaerobic serum bottle, and the same volume of fresh papermaking wastewater with N-octyl […] (C8-HSL) is injected into the bottle through a long syringe at the end of the cycle. The injected wastewater is then domesticated for about a week.
2 μg C8-HSL standards are added to the reactor every day after domestication.
The reactor is treated in a constant temperature magnetic stirring water bath at 38° C.
Water samples are collected at the beginning and end of each cycle from the reactor, and sludge samples are also collected at the end of each cycle from the reactor. After a total of three months of operation, sludge biomass is collected by centrifugation at 5000×g for 10 minutes and then frozen for further sequencing analysis. […]

[2] = system: anaerobic granular sludge; experiment: Paper mill anaerobic reactor (1500 m^3) with C8-HSL added to papermaking wastewater at the regulating tank outlet
Description: In an anaerobic reactor of a paper mill, the reactor is 8 m high and its working volume is 1500 m^3. The papermaking wastewater with high calcium content enters into a regulating tank. The regulating tank has a volume of 1000 m^3. When it is detected that the proportion of microorganism content in the anaerobic granular sludge in the anaerobic reactor is less than 0.6, C8-HSL standard of AHLs type signal molecule is added to the paper-making wastewater at the outlet of the regulating tank end, the quantity of C8-HSL standard is 50 mg per cubic meter of papermaking wastewater. The time interval of signal molecule input is controlled by time controller. The regulating pool is equipped with liquid level transmitter to detect the liquid level to prevent the reactor feed pump from idling. The wastewater that is modulated in the regulating tank is injected into the anaerobic reactor through the wastewater feed pump and treated according to the conventional anaerobic way. In the treatment process, water samples are collected once a month, and sludge samples are collected once half a year. Sludge biomass is collected by centrifugation at 5000×g for 10 minutes, and then frozen for further sequencing analysis.

[3] = 2 μg C8-HSL added every day, 38° C.
[4] = 20 μg C8-HSL added every day, 38° C.
[5] = 30 μg C8-HSL added every day (150 mg/m^3)
[6] = 30 μg C8-HSL added every day (150 mg/m^3), 38° C.
[7] = 50 mg C8-HSL per cubic meter of papermaking wastewater, paper mill, after five years

increase of activity of coenzyme F420 compared with the reactor without exogenous signal molecules ([1]; 2 μg C8-HSL added every day): 33.5%
content of coenzyme F420 [1, 3]: 0.18 μmol/gVSS
increase of activity of coenzyme F420 compared with the reactor without exogenous signal molecules ([1]; 20 μg C8-HSL added every day): 48.1%
content of coenzyme F420 [1, 4]: 0.20 μmol/gVSS
increase of activity of coenzyme F420 compared with the reactor of adding 100 mg signal molecule per cubic meter of papermaking wastewater [1, 5]: 1.5%
increase of activity of coenzyme F420 compared with the reactor without exogenous signal molecules [1, 5]: 50.38%
content of coenzyme F420 [1, 6]: 0.203 μmol/gVSS
content of coenzyme F420 [2, 7]: 0.19 μmol/gVSS
Compound: CCCCCCCC(=O)N[C@H]1CCOC1=O [C8-HSL, N-octyl hypererine lactone]
increase of removal rate of COD compared with the reactor without exogenous signal molecules ([1]; 2 μg C8-HSL added every day): 10.8%
increase of specific methanogenic activity (SMA) compared with the reactor without exogenous signal molecules ([1]; 2 μg C8-HSL added every day): 32.4%
chemical oxygen demand (COD) removal rate [1, 3]: 75%
specific methanogenic activity (SMA) [1, 3]: 25 mL/(gVSS·h)
Methanobactium, Methanosaeta and Methanosarcina in the microbial community ([1]; 2 μg C8-HSL added every day): enhanced
increase of removal rate of COD compared with the reactor without exogenous signal molecules ([1]; 20 μg C8-HSL added every day): 18.2%
increase of specific methanogenic activity (SMA) compared with the reactor without exogenous signal molecules ([1]; 20 μg C8-HSL added every day): 43%
COD removal rate [1, 4]: 80%
specific methanogenic activity (SMA) [1, 4]: 27 mL/(gVSS·h)
Methanobactium, Methanosaeta and Methanosarcina in the microbial community ([1]; 20 μg C8-HSL added every day): enhanced
increase of removal rate of COD compared with the reactor of adding 100 mg signal molecule per cubic meter of papermaking wastewater [1, 5]: 0.375%
increase of removal rate of COD compared with the reactor without exogenous signal molecules [1, 5]: 18.63%
increase of specific methanogenic activity (SMA) compared with the reactor of adding 100 mg signal molecule per cubic meter of papermaking wastewater [1, 5]: 1.85%
increase of specific methanogenic activity (SMA) compared with the reactor without exogenous signal molecules [1, 5]: 45.66%
COD removal rate [1, 6]: 80.3%
specific methanogenic activity (SMA) [1, 6]: 27.5 mL/(gVSS·h)
Methanobactium, Methanosaeta and Methanosarcina in the microbial community [1, 5]: enhanced
COD removal rate [2, 7]: 75%
specific methanogenic activity (SMA) [2, 7]: 24 mL/(gVSS·h)
calcification of the sludge ([2]; 50 mg C8-HSL per cubic meter of papermaking wastewater, paper mill, after five years, without C8-HSL obvious calcification for up to two years): has not been calcified
Methanobactium, Methanosaeta and Methanosarcina in the microbial community ([2]; 50 mg C8-HSL per cubic meter of papermaking wastewater, paper mill, sequencing analysis): enhanced
effect on delaying calcification ([2]; paper mill reactor, compared with before signal molecule addition): obvious
